Where two headings read alike, the source gives them in different places.

Test [1] has as its system A673 cells. Put plainly: Cellular potency in A673 cells. The format is cell-based. As to conditions: for IC50: Homo sapiens, A673, Table 3, A673 cells; for Ratio of Biochemical Potency: Cellular Potency: Table 3, ratio >0.9 is an indicator of Cyclin K degradation.
Test [2] concerns the target Human CDK7/CycH/MAT1 (Homo sapiens (Human), UniProt P50613). Nature of the test: Radiometric protein kinase assay (33PanQinase Activity Assay), CDK7. The format is biochemical. As to conditions: Table 1; ATP 3 μM. As for the experimental part:
(§1) A radiometric protein kinase assay (^33PanQinase® Activity Assay) was used for measuring the kinase activity of the two protein kinases (CDK12/CDK7). All kinase assays were performed in 96-well FlashPlates™ from PerkinElmer (Boston, MA, USA) in a 50 μL reaction volume.
(§2) The reaction cocktail was pipetted in four steps in the following order: • 20 μL of assay buffer (standard buffer) • 5 μL of ATP solution (in H2O) • 5 μL of test compound (in 10% DMSO) • 10 μL of substrate/10 μL of enzyme solution (premixed)
(§3) The reaction mixture was incubated at 30° C. for 60 min and then stopped by the addition of 2% (v/v) H3PO4. Plates were aspirated and washed two times with 200 μL 0.9% (w/v) NaCl. Incorporation of ^33Pi was determined with a microplate scintillation count (Microbeta, Wallac).
(§4) The fitting method used was a least-squares fit.

Test [3] concerns the target Human CDK12 wt/CycK (Homo sapiens (Human), UniProt Q9NYV4). Put plainly: Radiometric protein kinase assay (33PanQinase Activity Assay), CDK12. The settings on record: for CDK7/CDK12: ratio greater than 1 indicated selectivity for CDK12. The format is biochemical. As for the experimental part: as §1, §2, §3, §4
[4] abbreviates: Table 1, ATP 0.3 μM, read-out: CDK12 IC50.
[5] abbreviates: Table 3, CDK12 kinase activity, read-out: Biochemical Potency IC50.

Human CDK12 wt/CycK, sequence (Q9NYV4 whole entry): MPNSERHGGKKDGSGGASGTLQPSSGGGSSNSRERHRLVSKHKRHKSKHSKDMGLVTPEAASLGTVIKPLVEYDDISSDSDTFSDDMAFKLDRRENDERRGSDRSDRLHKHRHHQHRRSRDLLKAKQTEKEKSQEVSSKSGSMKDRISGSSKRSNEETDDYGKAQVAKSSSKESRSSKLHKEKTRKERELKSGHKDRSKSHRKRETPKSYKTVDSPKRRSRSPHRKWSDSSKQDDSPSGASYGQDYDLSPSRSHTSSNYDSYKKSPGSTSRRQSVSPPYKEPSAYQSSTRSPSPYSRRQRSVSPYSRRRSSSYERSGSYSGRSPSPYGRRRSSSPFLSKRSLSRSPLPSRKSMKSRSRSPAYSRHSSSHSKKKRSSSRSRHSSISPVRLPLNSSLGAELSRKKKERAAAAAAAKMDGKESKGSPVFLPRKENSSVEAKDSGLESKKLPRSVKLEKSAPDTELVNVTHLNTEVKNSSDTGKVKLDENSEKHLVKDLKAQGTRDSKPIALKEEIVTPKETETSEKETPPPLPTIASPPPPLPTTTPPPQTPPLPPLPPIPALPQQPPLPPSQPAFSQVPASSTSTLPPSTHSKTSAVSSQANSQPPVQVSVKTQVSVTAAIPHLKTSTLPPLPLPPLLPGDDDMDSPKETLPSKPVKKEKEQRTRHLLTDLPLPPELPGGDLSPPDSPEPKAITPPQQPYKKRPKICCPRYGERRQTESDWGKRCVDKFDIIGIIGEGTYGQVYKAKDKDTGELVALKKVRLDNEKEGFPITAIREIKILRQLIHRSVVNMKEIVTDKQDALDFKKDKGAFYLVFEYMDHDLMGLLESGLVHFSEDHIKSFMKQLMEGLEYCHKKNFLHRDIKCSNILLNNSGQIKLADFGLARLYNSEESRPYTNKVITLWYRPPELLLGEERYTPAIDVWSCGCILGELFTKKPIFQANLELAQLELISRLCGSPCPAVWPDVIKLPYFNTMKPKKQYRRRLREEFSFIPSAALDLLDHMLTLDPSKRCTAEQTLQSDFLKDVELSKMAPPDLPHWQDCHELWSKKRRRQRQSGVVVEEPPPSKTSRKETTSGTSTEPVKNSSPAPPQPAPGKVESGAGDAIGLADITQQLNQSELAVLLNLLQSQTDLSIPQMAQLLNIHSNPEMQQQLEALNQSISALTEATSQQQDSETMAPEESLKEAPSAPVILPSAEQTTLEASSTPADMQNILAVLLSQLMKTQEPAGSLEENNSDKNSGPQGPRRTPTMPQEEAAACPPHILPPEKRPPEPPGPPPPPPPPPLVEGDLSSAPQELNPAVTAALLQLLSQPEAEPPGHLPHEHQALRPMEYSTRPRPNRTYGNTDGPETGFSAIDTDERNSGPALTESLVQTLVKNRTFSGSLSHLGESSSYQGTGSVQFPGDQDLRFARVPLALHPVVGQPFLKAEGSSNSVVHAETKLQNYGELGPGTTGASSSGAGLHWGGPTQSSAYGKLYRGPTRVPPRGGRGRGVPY
Human CDK12 wt/CycK, sequence (O75909 whole entry partner): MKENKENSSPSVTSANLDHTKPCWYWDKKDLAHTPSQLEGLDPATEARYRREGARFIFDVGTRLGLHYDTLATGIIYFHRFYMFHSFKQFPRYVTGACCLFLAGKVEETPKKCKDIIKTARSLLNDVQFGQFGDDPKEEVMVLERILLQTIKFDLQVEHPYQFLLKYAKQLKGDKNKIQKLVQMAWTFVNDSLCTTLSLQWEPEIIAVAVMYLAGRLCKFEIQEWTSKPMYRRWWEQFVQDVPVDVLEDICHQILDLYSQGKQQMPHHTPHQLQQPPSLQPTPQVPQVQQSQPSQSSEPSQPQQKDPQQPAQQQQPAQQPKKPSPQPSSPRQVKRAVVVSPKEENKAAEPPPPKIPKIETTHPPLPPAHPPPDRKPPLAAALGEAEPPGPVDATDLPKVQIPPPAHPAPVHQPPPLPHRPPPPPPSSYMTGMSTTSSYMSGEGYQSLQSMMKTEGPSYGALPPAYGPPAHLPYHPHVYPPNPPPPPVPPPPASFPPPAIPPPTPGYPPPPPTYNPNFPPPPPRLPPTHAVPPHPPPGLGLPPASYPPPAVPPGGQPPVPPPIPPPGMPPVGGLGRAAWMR
Human CDK7/CycH/MAT1, sequence (P50613 whole entry): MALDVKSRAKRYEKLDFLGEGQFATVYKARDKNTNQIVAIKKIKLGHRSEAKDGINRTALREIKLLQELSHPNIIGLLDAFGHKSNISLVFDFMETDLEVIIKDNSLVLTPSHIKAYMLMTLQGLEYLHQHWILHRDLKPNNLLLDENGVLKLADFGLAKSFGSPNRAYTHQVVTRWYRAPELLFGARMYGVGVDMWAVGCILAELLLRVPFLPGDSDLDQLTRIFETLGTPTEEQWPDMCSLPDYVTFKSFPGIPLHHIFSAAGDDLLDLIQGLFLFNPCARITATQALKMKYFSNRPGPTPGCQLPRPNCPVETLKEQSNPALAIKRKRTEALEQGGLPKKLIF
Human CDK7/CycH/MAT1, sequence (P51946 whole entry partner): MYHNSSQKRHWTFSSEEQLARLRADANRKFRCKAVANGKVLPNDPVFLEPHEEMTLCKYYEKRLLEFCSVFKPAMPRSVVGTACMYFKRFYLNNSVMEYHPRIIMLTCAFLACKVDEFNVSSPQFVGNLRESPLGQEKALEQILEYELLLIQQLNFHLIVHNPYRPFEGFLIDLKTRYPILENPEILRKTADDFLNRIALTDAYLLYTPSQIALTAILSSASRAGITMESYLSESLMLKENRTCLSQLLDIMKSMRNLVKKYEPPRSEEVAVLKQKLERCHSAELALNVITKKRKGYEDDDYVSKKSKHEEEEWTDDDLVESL
Human CDK7/CycH/MAT1, sequence (P51948 whole entry partner): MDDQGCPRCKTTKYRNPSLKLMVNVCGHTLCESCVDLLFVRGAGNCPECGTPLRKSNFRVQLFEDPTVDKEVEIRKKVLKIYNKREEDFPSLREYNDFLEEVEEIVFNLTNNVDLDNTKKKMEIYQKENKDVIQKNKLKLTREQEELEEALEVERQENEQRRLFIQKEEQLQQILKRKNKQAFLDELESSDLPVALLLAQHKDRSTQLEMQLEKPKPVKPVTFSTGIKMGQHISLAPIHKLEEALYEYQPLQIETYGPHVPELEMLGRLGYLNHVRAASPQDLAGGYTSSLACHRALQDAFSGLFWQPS

The IC50 is the concentration at which inhibition is half-maximal. Regarding `Cc1cccc2ncc(CNc3cc(NC[C@H]4CCNC[C@@H]4O)nc4c(C(C)C)cnn34)n12` [H-APPAMP-001, (3R,4R)-4-(((3-isopropyl-7-(((5-methylimidazo[1,2-a]pyridin-3-yl)methyl)amino)pyrazolo[1,5-a]pyrimidin-5-yl)amino)methyl)piperidin-3-ol], the IC50 was determined as 123 nM in test [1], 436 nM in test [2], 38 nM in test [3] (setting [4]) and 38 nM in test [3] (setting [5]). Also, in test [1], the “Ratio of Biochemical Potency: Cellular Potency” value (“Ratio of Biochemical Potency” below) came to 0.3. Moreover, in test [3] (Table 1), the CDK7/CDK12 was determined as 11.5.
With `CC(C)c1cnn2c(NCc3cn4cccnc4n3)cc(NC[C@H]3CCNC[C@@H]3O)nc12` [H-APPAMP-002, (3R,4R)-4-(((7-((imidazo[1,2-a]pyrimidin-2-ylmethyl)amino)-3-isopropylpyrazolo[1,5-a]pyrimidin-5-yl)amino)methyl)piperidin-3-ol], the IC50 worked out at 716 nM in test [1], 704 nM in test [2], 71.5 nM in test [3] (setting [4]) and 71 nM in test [3] (setting [5]). For the same compound, the “Ratio of Biochemical Potency” value in test [1] turned out to be 0.1. Also, the CDK7/CDK12 in test [3] (Table 1) is listed as 9.85.
For `CC(C)c1cnn2c(NCc3cn4ccccc4n3)cc(NC[C@H]3CCNC[C@@H]3O)nc12` [H-APPAMP-003, (3R,4R)-4-(((7-((imidazo[1,2-a]pyridin-2-ylmethyl)amino)-3-isopropylpyrazolo[1,5-a]pyrimidin-5-yl)amino)methyl)piperidin-3-ol], the half-maximal inhibitory concentration (IC50) in test [1] came to 8 nM; in test [2], 411 nM; in test [3] (setting [4]), 50.2 nM; in test [3] (setting [5]), 50 nM. Also, in test [1], the “Ratio of Biochemical Potency” value is recorded as 6.2. Also, the CDK7/CDK12 in test [3] (Table 1) turned out to be 8.19.
For `CC(C)c1cnn2c(NCc3nc4ccccc4[nH]3)cc(NC[C@H]3CCNC[C@@H]3O)nc12` [H-APPAMP-005, (3R,4R)-4-(((7-(((1H-benzo[d]imidazol-2-yl)methyl)amino)-3-isopropylpyrazolo[1,5-a]pyrimidin-5-yl)amino)methyl)piperidin-3-ol], the IC50 in test [1] worked out at 47 nM; in test [2], 343 nM; in test [3] (setting [4]), 65 nM; in test [3] (setting [5]), 65 nM. In test [1], the “Ratio of Biochemical Potency” value came out at 1.4. Further, the CDK7/CDK12 in test [3] (Table 1) amounted to 5.28.
For the compound `CC(C)c1cnn2c(NCc3ccc4c(c3)ncn4C)cc(NC[C@H]3CCNC[C@@H]3O)nc12` [H-APPAMP-006, (3R,4R)-4-(((3-isopropyl-7-(((1-methyl-1H-benzo[d]imidazol-5-yl)methyl)amino)pyrazolo[1,5-a]pyrimidin-5-yl)amino)methyl)piperidin-3-ol], the IC50 was found to be 52 nM in test [1], 127 nM in test [2], 26.9 nM in test [3] (setting [4]) and 27 nM in test [3] (setting [5]). The “Ratio of Biochemical Potency” value in test [1] is recorded as 0.5. Also, the CDK7/CDK12 in test [3] (Table 1) is given as 4.72.
Consider `Cc1csc2nc(CNc3cc(NC[C@H]4CCNC[C@@H]4O)nc4c(C(C)C)cnn34)cn12` [H-APPAMP-007, (3R,4R)-4-[[[3-isopropyl-7-[(3-methylimidazo[2,1-b]thiazol-6-yl)methylamino]pyrazolo[1,5-a]pyrimidin-5-yl]amino]methyl]piperidin-3-ol], for which the IC50 in test [1] came out at 27 nM; in test [2] it was 158 nM; in test [3] (setting [4]), 20 nM; in test [3] (setting [5]), 20 nM. Besides, the “Ratio of Biochemical Potency” value in test [1] is 0.7. Moreover, the CDK7/CDK12 in test [3] (Table 1) stood at 7.90.
Take `Cc1ccn2cc(CNc3cc(NC[C@H]4CCNC[C@@H]4O)nc4c(C(C)C)cnn34)nc2c1` [H-APPAMP-009, (3R,4R)-4-(((3-isopropyl-7-(((7-methylimidazo[1,2-a]pyridin-2-yl)methyl)amino)pyrazolo[1,5-a]pyrimidin-5-yl)amino)methyl)piperidin-3-ol]: the 50% inhibitory concentration (IC50) worked out at 14.9 nM in test [1], 123 nM in test [2], 38 nM in test [3] (setting [4]) and 38 nM in test [3] (setting [5]). Moreover, the “Ratio of Biochemical Potency” value in test [1] is given as 2.6. The CDK7/CDK12 in test [3] (Table 1) is 3.2.
On to `Cc1cccc2nc(CNc3cc(NC[C@H]4CCNC[C@@H]4O)nc4c(C(C)C)cnn34)cn12` [H-APPAMP-010, (3R,4R)-4-(((3-isopropyl-7-(((5-methylimidazo[1,2-a]pyridin-2-yl)methyl)amino)pyrazolo[1,5-a]pyrimidin-5-yl)amino)methyl)piperidin-3-ol], for which the IC50 in test [1] worked out at 4.3 nM; in test [2], 238 nM; in test [3] (setting [4]), 40 nM; in test [3] (setting [5]), 40 nM. Moreover, in test [1], the “Ratio of Biochemical Potency” value worked out at 9.3. Besides, the CDK7/CDK12 in test [3] (Table 1) was 6.0.
On to `CC(C)c1cnn2c(NCc3cn4cc(F)ccc4n3)cc(NC[C@H]3CCNC[C@@H]3O)nc12` [H-APPAMP-011, (3R,4R)-4-(((7-(((6-fluoroimidazo[1,2-a]pyridin-2-yl)methyl)amino)-3-isopropylpyrazolo[1,5-a]pyrimidin-5-yl)amino)methyl)piperidin-3-ol], for which the IC50 in test [1] came out at 6.3 nM; in test [2], 168 nM; in test [3] (setting [4]) it was 33 nM; in test [3] (setting [5]), 33 nM. Further, in test [1], the “Ratio of Biochemical Potency” value is on record as 5.2. In addition, in test [3] (Table 1), the CDK7/CDK12 stood at 5.1.
In the case of `CC(C)c1cnn2c(NCc3cn4cc(Cl)ccc4n3)cc(NC[C@H]3CCNC[C@@H]3O)nc12` [H-APPAMP-012, (3R,4R)-4-(((7-(((6-chloroimidazo[1,2-a]pyridin-2-yl)methyl)amino)-3-isopropylpyrazolo[1,5-a]pyrimidin-5-yl)amino)methyl)piperidin-3-ol], the IC50 stood at 21.8 nM in test [1], 214 nM in test [2], 26 nM in test [3] (setting [4]) and 26 nM in test [3] (setting [5]). Moreover, the “Ratio of Biochemical Potency” value in test [1] is reported as 1.2. The CDK7/CDK12 in test [3] (Table 1) was 8.2.
As to `CC(C)c1cnn2c(NCc3cn4cccc(C5CC5)c4n3)cc(NC[C@H]3CCNC[C@@H]3O)nc12` [H-APPAMP-013, (3R,4R)-4-(((7-(((8-cyclopropylimidazo[1,2-a]pyridin-2-yl)methyl)amino)-3-isopropylpyrazolo[1,5-a]pyrimidin-5-yl)amino)methyl)piperidin-3-ol], the IC50 in test [1] was 12.2 nM; in test [2] it was 226 nM; in test [3] (setting [4]) it was 70 nM; in test [3] (setting [5]), 70 nM. For the same compound, the “Ratio of Biochemical Potency” value in test [1] was determined as 5.7. Further, the CDK7/CDK12 in test [3] (Table 1) is on record as 3.2.
For the compound `CC(C)c1cnn2c(NCc3ccc4ccccc4n3)cc(NC[C@H]3CCNC[C@@H]3O)nc12` [H-APPAMP-014, (3R,4R)-4-(((3-isopropyl-7-((quinolin-2-ylmethyl)amino)pyrazolo[1,5-a]pyrimidin-5-yl)amino)methyl)piperidin-3-ol], the half-maximal inhibitory concentration (IC50) was 7.3 nM in test [1], 19 nM in test [2], 75 nM in test [3] (setting [4]) and 75 nM in test [3] (setting [5]). The “Ratio of Biochemical Potency” value in test [1] turned out to be 10. In addition, the CDK7/CDK12 in test [3] (Table 1) was determined as 0.3.
Regarding `CC(C)c1cnn2c(NCc3ccccc3)cc(NC[C@H]3CCNC[C@@H]3O)nc12` [REF-001, reference compound], the IC50 in test [3] (setting [4]) was determined as 3200 nM.
Consider `CC(C)c1cnn2c(NCc3ccncc3)cc(NC[C@H]3CCNC[C@@H]3O)nc12` [REF-002, reference compound], for which the results for the IC50 in test [2] and in test [3] (setting [4]) were 125 nM and 253 nM, respectively.
Consider `CC(C)c1cnn2c(Nc3csc4ccccc34)cc(NC[C@H]3CCNC[C@@H]3O)nc12` [REF-003, reference compound], for which the half-inhibitory concentration (IC50) in test [2] was 11 nM; in test [3] (setting [4]) it was 597 nM.

The values are drawn from patent US12473303B2, “4-[[(7-aminopyrazolo[1,5-a]pyrimidin-5-yl)amino methyl]piperidin-3-ol compounds and their therapeutic use” (CARRICK THERAPEUTICS LIMITED, priority 2019, dated 2025).
